From ChEMBL document CHEMBL3244339, “Antitumor 1-(X-aryl)-3,3-dialkyltriazenes. 1. Quantitative structure-activity relationships vs. L1210 leukemia in mice” (J Med Chem, 1978)
Active and inactive are the calls of the source. The rule behind the calls is not given here.

Tests used:
[1] = Aqueous phase distribution coefficient, log P of the compound in 0.01 M NaOH; type: physicochemical
L1210 [2] = test: Antitumor activity against mouse L1210 cells allografted in mouse assessed as increase of host lifespan of 110 days; type: functional, cell-based
[3] = Aqueous phase distribution coefficient, log P of the compound in phosphate buffer at pH 7.4; type: physicochemical
Mus musculus = species on record: Mus musculus; test: Toxicity in mouse L1210 cells allografted mouse assessed as mortality up to 5 days; type: organism-based; conditions: l1210, 120 h
L1210 [4] = test: Antitumor activity against mouse L1210 cells allografted in mouse assessed as increase of host lifespan; type: functional
[5] = Distribution coefficient, log P of the compound; type: physicochemical; conditions: octanol/water
[6] = Octanol-saturated water partition coefficient, log D of the compound; type: physicochemical

With `CN(C)/N=N/c1ccccc1I` the logP [1] was 3.5 and the Activity (L1210 [2]) was “inactive”.
With `CN(C)/N=N/c1ccc([N+](=O)[O-])cc1C(=O)O` the Activity (L1210 [2]) was “inactive”.
In the case of `COc1ccccc1/N=N/N(C)C`, the logD [3] is reported as 2.34 and the Activity (Mus musculus) is reported as “Toxic”.
With `CSc1ccccc1/N=N/N(C)C` the logD [3] was 3.13 and the Activity (L1210 [2]) was “inactive”.
For `CN(C)/N=N/c1ccccc1C(N)=O`, the logD [3] was 1.73, the “log(1/C)” value (L1210 [4]) was 3.31 and the logP ([5]; read-out: logP) was 1.73.
For `CN(C)/N=N/c1ccccc1CO`, the logP [1] was 1.73 and the Activity (Mus musculus) was “Toxic”.
In the case of `CN(C)/N=N/c1ccccc1`, the logD [3] is reported as 2.59, the “log(1/C)” value (L1210 [4]) is reported as 3.85 and the logP ([5]; read-out: logP) is reported as 2.59.
With `COc1ccc(C(N)=O)cc1/N=N/N(C)C` the “log(1/C)” value (L1210 [4]) was 3.95 and the logP [5] was 0.44.
For `CN(C)/N=N/c1n[nH]cc1C(N)=O`, the “log(1/C)” value (L1210 [4]) was 3.49 and the logP ([5]; read-out: logP) was -0.12.
In the case of `CC(=O)N(C)/N=N/c1ccc(C)cc1`, the “log(1/C)” value (L1210 [4]) is reported as 2.78, the logD [6] is reported as 3.13 and the logP ([5]; read-out: logP) is reported as 3.13.
In the case of `CN(C)/N=N/c1ccccc1C(=O)NCC#N`, the “log(1/C)” value (L1210 [4]) is reported as 3.22 and the logP [5] is reported as 1.79.
For `CN(C)/N=N/c1ccccc1C(=O)NCC(N)=O`, the “log(1/C)” value (L1210 [4]) was 3.25 and the logP [5] was 1.17.
In the case of `CCCCN(C)/N=N/c1ccc(C(N)=O)cc1`, the “log(1/C)” value (L1210 [4]) is reported as 3.47 and the logD [6] is reported as 2.46.
With `CN(C)/N=N/c1ccccc1Cl` the logP [1] was 2.97 and the “log(1/C)” value (L1210 [4]) was 3.26.
In the case of `CN(C)/N=N/c1ccc(NC(N)=O)cc1`, the “log(1/C)” value (L1210 [4]) is reported as 3.97 and the logP [5] is reported as 1.25.
Work on `CN(C)/N=N/c1ccccc1C(=O)NC#N` yielded a logD [6] of 0.8.
With `CN(C)/N=N/c1ccc(SC#N)cc1C(N)=O` the Activity (L1210 [2]) was “inactive”.
In the case of `CCCCCCCCN(C)/N=N/c1ccccc1C(=O)O`, the logP [1] is reported as 0.24, the “log(1/C)” value (L1210 [4]) is reported as 3.47 and the logP ([5]; read-out: logP) is reported as 0.24.
With `C=CCN(C)/N=N/c1ccc(C(N)=O)cc1` the “log(1/C)” value (L1210 [4]) was 3.38 and the logP [5] was 2.09.
With `CN(C)/N=N/c1ccccc1C(=O)NCC(F)(F)F` the Activity (L1210 [2]) was “inactive”.
For `CN(CCO)/N=N/c1ccccc1`, the logP [1] was 1.71 and the Activity (Mus musculus) was “Toxic”.
For `CCCCCCCCN(C)/N=N/c1nc[nH]c1C(N)=O`, the logP [1] was 3.22, the “log(1/C)” value (L1210 [4]) was 3 and the logP ([5]; read-out: logP) was 3.2.
For `CCCN(C)/N=N/c1ccccc1C(=O)O`, the logP [1] was -1.66 and the “log(1/C)” value (L1210 [4]) was 3.74.
With `CN(C)/N=N/c1cccc([N+](=O)[O-])c1` the logD [6] was 2.75 and the Activity (Mus musculus) was “Toxic”.
With `CN(C)/N=N/c1ccccc1C#N` the Activity (L1210 [2]) was “inactive”.
With `CN(C)/N=N/c1ccccc1C(=O)NN` the logD [6] was 1.28 and the Activity (Mus musculus) was “Toxic”.
For `CN(C)/N=N/c1ccccc1C(F)(F)F`, the Activity (L1210 [2]) was “inactive”.
For `COC(=O)c1c[nH]nc1/N=N/N(C)C`, the “log(1/C)” value (L1210 [4]) was 3.49 and the logD [6] was 0.04.
For `CN(C)/N=N/c1ccc(Cl)cc1C(=O)O`, the Activity (L1210 [2]) was “inactive”.
For `CN(Cc1ccccc1)/N=N/c1nc[nH]c1C(N)=O`, the “log(1/C)” value (L1210 [4]) was 3.43 and the logP ([5]; read-out: logP) was 1.54.
For `CN(C)/N=N/c1ccc(C#N)cc1`, the logD [6] was 2.39 and the Activity (Mus musculus) was “Toxic”.
In the case of `CN(C)/N=N/c1ccc(S(N)(=O)=O)cc1`, the “log(1/C)” value (L1210 [4]) is reported as 3.6 and the logP [5] is reported as 0.98.
